ChEMBL document CHEMBL1158242, “New bioactive cerebrosides from Arisaema amurense” (1996)

Key:
Hepatocyte [1] = assay: Antihepatotoxic activity against CCl4-induced toxicity in rat hepatocytes assessed as effect on GPT activity at 5 uM by Reitman-Fankel method relative to control; format: functional
Hepatocyte [2] = assay: Antihepatotoxic activity against CCl4-induced toxicity in rat hepatocytes assessed as effect on SDH activity at 5 uM by Geralch method relative to control; format: functional

SMILES	Activity (Hepatocyte [1])	Activity (Hepatocyte [2])
CCCCCCCCC/C=C\CC/C=C/[C@@H](O)[C@H](CO[C@@H]1O[C@H](CO)[C@@H](O)[C@H](O)[C@H]1O)NC(=O)[C@H](O)CCCCCCCCCCCCCCCCCC	53.8%	51.2%
CCCCCCCCC/C=C/CC/C=C/[C@@H](O)[C@H](CO[C@@H]1O[C@H](CO)[C@@H](O)[C@H](O)[C@H]1O)NC(=O)C(O)CCCCCCCCCCCCCCCC (some centres not stated)	51.6%	46.1%
CCCCCCCCC/C=C\CC/C=C/[C@@H](O)[C@H](CO[C@@H]1O[C@H](CO)[C@@H](O)[C@H](O)[C@H]1O)NC(=O)C(O)CCCCCCCCCCCCCCCC (some centres not stated)	35.1%	36.9%
CCCCCCCCC/C=C\CC/C=C/[C@@H](O)[C@H](CO[C@@H]1O[C@H](CO)[C@@H](O)[C@H](O)[C@H]1O)NC(=O)C(O)CCCCCCCCCCCCCC (some centres not stated)	54.4%	71.2%
CCCCCCCCC/C=C/CC/C=C/[C@@H](O)[C@H](CO[C@@H]1O[C@H](CO)[C@@H](O)[C@H](O)[C@H]1O)NC(=O)C(O)CCCCCCCCCCCCCCCCCC (some centres not stated)	22.5%	7.2%
COc1cc(C2Oc3cc([C@H]4Oc5cc(O)cc(O)c5C(=O)[C@@H]4O)ccc3OC2CO)ccc1O (some centres not stated) [SILIBININ]	48.7%	42.3%
